Tested on: Metabolism protein genes
Experiment: DNA chip mRNA expression in yeast, metabolism protein genes (Table 7)
Type: cell-based, Saccharomyces cerevisiae S288C
Summary of the method: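 Cells were grown at 25° C. in YPD, treated at logarithmic phase for 2 h with a chemical at a concentration inhibiting growth but not causing death, and compared with untreated cultures. Labeled cDNA was hybridized to a DNA chip carrying all yeast genes, and the expression ratio was taken from scanner fluorescence.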

## Na2As [(1)]
Yeast gene YJR155W
  The level of expressed mRNA in the presence of chemical substance/The level of expressed mRNA in the absence of chemical substance: 10.6
Yeast gene YKL035W
  The level of expressed mRNA in the presence of chemical substance/The level of expressed mRNA in the absence of chemical substance: 1.0
Yeast gene YKL060C
  level of expressed mRNA in the presence/in the absence of chemical substance: 1.6
Yeast gene YKL091C
  The level of expressed mRNA in the presence of chemical substance/The level of expressed mRNA in the absence of chemical substance: 1.2
Yeast gene YKL104C
  The level of expressed mRNA in the presence of chemical substance/The level of expressed mRNA in the absence of chemical substance: 1.0
Yeast gene YKL148C
  level of expressed mRNA in the presence/in the absence of chemical substance: 0.9
Yeast gene YKL152C
  The level of expressed mRNA in the presence of chemical substance/The level of expressed mRNA in the absence of chemical substance: 1.3
Yeast gene YKL157W
  level of expressed mRNA in the presence/in the absence of chemical substance: 0.7
Yeast gene YKL213C
  The level of expressed mRNA in the presence of chemical substance/The level of expressed mRNA in the absence of chemical substance: 0.9
Yeast gene YKL215C
  The level of expressed mRNA in the presence of chemical substance/The level of expressed mRNA in the absence of chemical substance: 0.6
Yeast gene YKR034W
  level of expressed mRNA in the presence/in the absence of chemical substance: 0.9
Yeast gene YLL058W
  The level of expressed mRNA in the presence of chemical substance/The level of expressed mRNA in the absence of chemical substance: 1.0
Yeast gene YLR006C
  level of expressed mRNA in the presence/in the absence of chemical substance: 0.7
Yeast gene YLR044C
  level of expressed mRNA in the presence/in the absence of chemical substance: 0.8
Yeast gene YLR056W
  level of expressed mRNA in the presence/in the absence of chemical substance: 1.0
Yeast gene YLR058C
  level of expressed mRNA in the presence/in the absence of chemical substance: 0.9
Yeast gene YLR081W
  level of expressed mRNA in the presence/in the absence of chemical substance: 1.3
Yeast gene YLR089C
  level of expressed mRNA in the presence/in the absence of chemical substance: 0.9
Yeast gene YLR180W
  The level of expressed mRNA in the presence of chemical substance/The level of expressed mRNA in the absence of chemical substance: 1.3
Yeast gene YLR273C
  The level of expressed mRNA in the presence of chemical substance/The level of expressed mRNA in the absence of chemical substance: 1.4
Yeast gene YLR284C
  level of expressed mRNA in the presence/in the absence of chemical substance: 0.9
Yeast gene YLR299W
  The level of expressed mRNA in the presence of chemical substance/The level of expressed mRNA in the absence of chemical substance: 1.2
Yeast gene YLR300W
  The level of expressed mRNA in the presence of chemical substance/The level of expressed mRNA in the absence of chemical substance: 0.9
Yeast gene YLR304C
  level of expressed mRNA in the presence/in the absence of chemical substance: 0.7
Yeast gene YLR307W
  The level of expressed mRNA in the presence of chemical substance/The level of expressed mRNA in the absence of chemical substance: 0.9
Yeast gene YLR348C
  The level of expressed mRNA in the presence of chemical substance/The level of expressed mRNA in the absence of chemical substance: 1.1
Yeast gene YLR354C
  level of expressed mRNA in the presence/in the absence of chemical substance: 1.1
Yeast gene YLR372W
  level of expressed mRNA in the presence/in the absence of chemical substance: 0.7
Yeast gene YML022W
  level of expressed mRNA in the presence/in the absence of chemical substance: 0.9
Yeast gene YML054C
  The level of expressed mRNA in the presence of chemical substance/The level of expressed mRNA in the absence of chemical substance: 1.5
Yeast gene YML070W
  The level of expressed mRNA in the presence of chemical substance/The level of expressed mRNA in the absence of chemical substance: 0.9
Yeast gene YML100W
  The level of expressed mRNA in the presence of chemical substance/The level of expressed mRNA in the absence of chemical substance: 0.8
Yeast gene YMR008C
  The level of expressed mRNA in the presence of chemical substance/The level of expressed mRNA in the absence of chemical substance: 0.7
Yeast gene YMR011W
  level of expressed mRNA in the presence/in the absence of chemical substance: 1.3
Yeast gene YMR015C
  level of expressed mRNA in the presence/in the absence of chemical substance: 0.7
Yeast gene YMR020W
  The level of expressed mRNA in the presence of chemical substance/The level of expressed mRNA in the absence of chemical substance: 1.3
Yeast gene YMR083W
  level of expressed mRNA in the presence/in the absence of chemical substance: 1.4
Yeast gene YMR105C
  The level of expressed mRNA in the presence of chemical substance/The level of expressed mRNA in the absence of chemical substance: 1.9
Yeast gene YMR189W
  The level of expressed mRNA in the presence of chemical substance/The level of expressed mRNA in the absence of chemical substance: 0.7
Yeast gene YMR205C
  level of expressed mRNA in the presence/in the absence of chemical substance: 0.5
Yeast gene YMR261C
  level of expressed mRNA in the presence/in the absence of chemical substance: 0.7
Yeast gene YMR271C
  The level of expressed mRNA in the presence of chemical substance/The level of expressed mRNA in the absence of chemical substance: 1.6
Yeast gene YMR296C
  The level of expressed mRNA in the presence of chemical substance/The level of expressed mRNA in the absence of chemical substance: 0.6
Yeast gene YMR323W
  level of expressed mRNA in the presence/in the absence of chemical substance: 0.8
Yeast gene YNL012W
  The level of expressed mRNA in the presence of chemical substance/The level of expressed mRNA in the absence of chemical substance: 1.3
Yeast gene YNL025C
  level of expressed mRNA in the presence/in the absence of chemical substance: 0.9
Yeast gene YNL045W
  The level of expressed mRNA in the presence of chemical substance/The level of expressed mRNA in the absence of chemical substance: 0.8
Yeast gene YNL104C
  The level of expressed mRNA in the presence of chemical substance/The level of expressed mRNA in the absence of chemical substance: 1.1
Yeast gene YNL106C
  The level of expressed mRNA in the presence of chemical substance/The level of expressed mRNA in the absence of chemical substance: 1.0
Yeast gene YNL169C
  The level of expressed mRNA in the presence of chemical substance/The level of expressed mRNA in the absence of chemical substance: 0.7
Yeast gene YNL192W
  level of expressed mRNA in the presence/in the absence of chemical substance: 1.1
Yeast gene YNL231C
  The level of expressed mRNA in the presence of chemical substance/The level of expressed mRNA in the absence of chemical substance: 1.5
Yeast gene YNL322C
  The level of expressed mRNA in the presence of chemical substance/The level of expressed mRNA in the absence of chemical substance: 0.8
Yeast gene YNL331C
  The level of expressed mRNA in the presence of chemical substance/The level of expressed mRNA in the absence of chemical substance: 8.6
Yeast gene YNL332W
  The level of expressed mRNA in the presence of chemical substance/The level of expressed mRNA in the absence of chemical substance: 1.1
Yeast gene YNR019W
  The level of expressed mRNA in the presence of chemical substance/The level of expressed mRNA in the absence of chemical substance: 1.0
Yeast gene YNR033W
  The level of expressed mRNA in the presence of chemical substance/The level of expressed mRNA in the absence of chemical substance: 0.6
Yeast gene YNR059W
  The level of expressed mRNA in the presence of chemical substance/The level of expressed mRNA in the absence of chemical substance: 1.1
Yeast gene YOL058W
  The level of expressed mRNA in the presence of chemical substance/The level of expressed mRNA in the absence of chemical substance: 0.8
Yeast gene YOL086C
  level of expressed mRNA in the presence/in the absence of chemical substance: 1.1
Yeast gene YOL108C
  level of expressed mRNA in the presence/in the absence of chemical substance: 1.4
Yeast gene YOL116W
  level of expressed mRNA in the presence/in the absence of chemical substance: 1.1
Yeast gene YOL126C
  The level of expressed mRNA in the presence of chemical substance/The level of expressed mRNA in the absence of chemical substance: 1.0
Yeast gene YOL153C
  The level of expressed mRNA in the presence of chemical substance/The level of expressed mRNA in the absence of chemical substance: 1.0
Yeast gene YOL156W
  level of expressed mRNA in the presence/in the absence of chemical substance: 1.1
Yeast gene YOL165C
  The level of expressed mRNA in the presence of chemical substance/The level of expressed mRNA in the absence of chemical substance: 10.1
Yeast gene YOR002W
  level of expressed mRNA in the presence/in the absence of chemical substance: 0.8
Yeast gene YOR085W
  level of expressed mRNA in the presence/in the absence of chemical substance: 0.7
Yeast gene YOR099W
  The level of expressed mRNA in the presence of chemical substance/The level of expressed mRNA in the absence of chemical substance: 0.8
Yeast gene YOR103C
  level of expressed mRNA in the presence/in the absence of chemical substance: 1.1
Yeast gene YOR108W
  level of expressed mRNA in the presence/in the absence of chemical substance: 0.8
Yeast gene YOR128C
  level of expressed mRNA in the presence/in the absence of chemical substance: 0.9
Yeast gene YOR130C
  The level of expressed mRNA in the presence of chemical substance/The level of expressed mRNA in the absence of chemical substance: 0.8
Yeast gene YOR142W
  level of expressed mRNA in the presence/in the absence of chemical substance: 1.0
Yeast gene YOR176W
  level of expressed mRNA in the presence/in the absence of chemical substance: 0.7
Yeast gene YOR178C
  level of expressed mRNA in the presence/in the absence of chemical substance: 1.4
Yeast gene YOR251C
  level of expressed mRNA in the presence/in the absence of chemical substance: 1.1
Yeast gene YOR336W
  The level of expressed mRNA in the presence of chemical substance/The level of expressed mRNA in the absence of chemical substance: 0.7
Yeast gene YOR347C
  The level of expressed mRNA in the presence of chemical substance/The level of expressed mRNA in the absence of chemical substance: 0.9
Yeast gene YOR348C
  level of expressed mRNA in the presence/in the absence of chemical substance: 1.1
Yeast gene YPL017C
  The level of expressed mRNA in the presence of chemical substance/The level of expressed mRNA in the absence of chemical substance: 1.0
Yeast gene YPL028W
  level of expressed mRNA in the presence/in the absence of chemical substance: 0.7
Yeast gene YPL057C
  level of expressed mRNA in the presence/in the absence of chemical substance: 1.9
Yeast gene YPL135W
  level of expressed mRNA in the presence/in the absence of chemical substance: 0.9
Yeast gene YPL148C
  level of expressed mRNA in the presence/in the absence of chemical substance: 1.2
Yeast gene YPR026W
  The level of expressed mRNA in the presence of chemical substance/The level of expressed mRNA in the absence of chemical substance: 0.9
Yeast gene YPR113W
  level of expressed mRNA in the presence/in the absence of chemical substance: 1.1
Yeast gene YPR165W
  level of expressed mRNA in the presence/in the absence of chemical substance: 1.3
Yeast gene YPR167C
  The level of expressed mRNA in the presence of chemical substance/The level of expressed mRNA in the absence of chemical substance: 5.3
Yeast gene YPR183W
  level of expressed mRNA in the presence/in the absence of chemical substance: 0.9

— patent US8192962B2, “Processes for detecting toxic substances” (Daikin Industries, Ltd., priority 2001, dated 2012)
